The target of one experiment is MAD2L2 (Homo sapiens, UniProt Q9UI95). In words: Cellular thermal shift assay (CETSA) in 293T cells. Type of experiment: cell-based. The following applies: 50 μM, 1 hour. Here is the method: The in vivo binding of MAD2L2 to the small molecule compounds was detected using the cellular thermal shift assay (CETSA), following their standard protocol. Briefly, 293T cells were grown to confluency and treated for 1 hour with the DMSO or selected compounds at 50 µM. Cells were collected and centrifuged for 3 min at 300 g, washed once with PBS, and each pellet was resuspended in 1 ml of PBS supplemented with Merck® 1000×protease inhibitor (539134). The cell suspensions were aliquoted and incubated for 3 min in the VWR XT96 thermal cycler using a gradient from 40°−55° C. Following heating, the tubes were incubated at room temperature for 3 min and then snap frozen in liquid nitrogen. The samples were then lysed via two subsequent freeze-thaw cycles with vortexing, and the lysates were centrifuged at 20,000 g for 20 min at 4° C. Finally, the cleared lysates were boiled in Laemmli buffer for 5 minutes.
In order to validate that MAD2L2 is a direct target of c #2 and c #3, the inventors tested the compounds' binding kinetics to a recombinant protein by Field Effect Biosensing (FEB) technology. Briefly, purified GST-MAD2L2 was immobilized onto a […] chip, and the current across the chip is measured to determine the baseline current. Then, a soluble compound was flowed over the chip. Interaction of the soluble and immobilized molecules yields a detectable change in conductance of the biosensor. The Kon and Koff of the interaction were measured over time and were used to calculate the KD. The binding of both c #2 and c #3 to MAD2L2 is in the micromolar range: 31.08 μM and 44.88 μM, respectively (FIG. 13A). […] The in vivo binding of c #2 or c #3 to MAD2L2 was validated by using a cellular thermal shift assay (CETSA), which is a reliable reporter showing whether a molecule enters the cell and the nucleus and binds to the protein of interest. Briefly, under normal conditions, most of the MAD2L2 protein unfolds, aggregates and disappears from the soluble fraction of the lysate between 46° C. and 49° C. […]

The next experiment concerns the target MAD2L2-Rev1 complex (Homo sapiens, UniProt Q9UI95). As to the kind of experiment: GFP-Trap co-immunoprecipitation of YFP-Rev1 and myc-MAD2L2 in HEK293 cells. Type of experiment: cell-based. On the set-up: expressed in transfected cells; host or cells: HEK293. The following applies: 50 μM; for reduction of MAD2L2-Rev1 binding (complex formation): 24 h. Here is the method: HEK293 cells were plated in 10-cm plates at 40-50% confluency. The next day, the cells were co-transfected with YFP-Rev1 and myc-MAD2L2 plasmids. After 24 hours, 50 µM inhibitor compounds (or DMSO negative control) were applied to the cells and growth continued for another 24 hours. The cells were then harvested and protein extraction was performed, followed by IP pulldown of the YFP-Rev1 species with GFP-Trap A conjugated agarose beads, to assess the levels of Co-IP'ed myc-REV7.
Medium/DMEM (Biological Industries Israel Beit Haemek; 01-052-1A) with 4.5 g/l D-glucose, 4 mM L-glutamine, 10% fetal bovine serum (Biological Industries Israel Beit Haemek; 04-007-1A), and 1% penicillin/streptomycin. The H1975 cells were cultured in RPMI 1640 medium (Biological Industries Israel Beit Haemek; 01-100-1A) with 4.5 g/l D-glucose, 4 mM L-glutamine, 10% fetal bovine serum (Biological Industries Israel Beit Haemek; 04-007-1A), and 1% penicillin/streptomycin. Transfections of HEK293 cells with plasmid DNA were performed using the Avalanche® Everyday Transfection Reagent (EZT-EVDY-1); according to the manufacturer's protocol. Briefly, cells were passaged the day before transfection to reach a confluency of 60-70%. The next day, the selected plasmid DNA was incubated in serum-free media with the recommended volume of transfection reagent for 20 minutes at room temperature. This transfection mix was gently added to the prepared cell culture plate(s) for continued incubation at 37° C. For co-IP experiment plates, after 24 hours, the relevant compound (DMSO vehicle, c #2, or c #3) was added in pre-warmed media, and the transfected plates were incubated for another 24 hours at 37° C. until harvesting.
HEK293 cells were harvested 48 h following co-transfection and lysed in extraction buffer (50 mM Tris pH 8, 150 mM NaCl, 20 mM EDTA, 50 mM NaF, 1% TritonX) supplemented with Merck® 1000×protease inhibitor (539134). Cells were lysed on ice for 30 minutes and centrifuged at 20,000 g for 30 minutes at 4° C. For immunoblotting, extracts were boiled in Laemmli buffer for 5 min. Equal amounts of protein sample (30 μg) were loaded on 8%-12% acrylamide gel and transferred to a nitrocellulose membrane (Amersham). For immunoprecipitations, clarified lysates were supplemented with 7 μl of equilibrated GFP-Trap antibody-conjugated agarose beads (Chromotek; gta-20) and incubated for 1-2 h at 4° C. Beads were washed three times in PBS buffer and boiled in Laemmli buffer for 5 minutes. The following primary antibodies were used for immunoblotting: Myc (Santa Cruz; SC-40) 1:1000 dilution, GFP (Santa Cruz, SC-9996) 1:1000 dilution, MAD2L2 (ProteinTech; 12683-1-AP). […]

“Also recorded” adds a separate entry of the source.

Sequence of MAD2L2 (Q9UI95 whole entry): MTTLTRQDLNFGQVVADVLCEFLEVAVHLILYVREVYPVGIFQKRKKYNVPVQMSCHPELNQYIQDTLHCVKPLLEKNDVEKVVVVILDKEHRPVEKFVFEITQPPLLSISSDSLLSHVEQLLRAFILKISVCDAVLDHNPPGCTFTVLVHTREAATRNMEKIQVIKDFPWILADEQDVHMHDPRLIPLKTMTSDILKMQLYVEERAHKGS
Sequence of MAD2L2-Rev1 complex (Q9UI95 whole entry, one chain of several): as the sequence (Q9UI95 whole entry) above

On to `Cc1oc(-c2ccco2)nc1CC(=O)N[C@@H](C(=O)O)c1ccccc1` [Compound 3], for which, at MAD2L2 (listed as c #3), the “stabilization of folded MAD2L2 (in words)” value is given as “stabilize the folded MAD2L2 protein; also recorded: stronger binding affinity to MAD2L2 than c #2”. For the same compound, on MAD2L2-Rev1 complex, the “Rev1-Rev7 binding interaction (in words)” value is listed as “reduction in Rev1-Rev7 binding interaction” and the “reduction of MAD2L2-Rev1 binding (complex formation)” value is on record as “about 80%”.
With `CNc1nc(N2CCCCC2)nc(-n2cnc(SCC(N)=O)n2)n1` [Compound 2], the “stabilization of folded MAD2L2 (in words)” value on MAD2L2 is recorded as “stabilize the folded MAD2L2 protein”. Besides, on MAD2L2 (normal conditions between 46° C. and 49° C.), the MAD2L2 aggregation temperature result was “milder change in MAD2L2's aggregation temperature”. On MAD2L2-Rev1 complex, the “Rev1-Rev7 binding interaction (in words)” value is reported as “reduction in Rev1-Rev7 binding interaction” and the “reduction of MAD2L2-Rev1 binding (complex formation)” value is recorded as “about 50%”.

The record behind these values is patent US20250255876A1, “COMPOSITIONS AND METHODS FOR CANCER TREATMENT” (ARIEL SCIENTIFIC INNOVATIONS LTD., priority 2021, published 2025).
